# Tested on: infectious agents (strains tested)
# Assay: organism not typed
# Format: cell-based
smiles,measurement,setting,value
C[C@@H]1[C@H](O)[C@@H](C)/C=C/C=C/C=C/C=C/C=C/C=C/C=C/[C@H](O[C@@H]2O[C@H](C)[C@@H](O)[C@H](N)[C@@H]2O)C[C@@H]2O[C@](O)(C[C@@H](O)C[C@@H](O)[C@H](O)CC[C@@H](O)C[C@@H](O)CC(=O)O[C@H]1C)C[C@H](O)[C@H]2C(=O)O [Amphotericin],MIC,"Absidia spp, read-out: Geometric Mean MIC",0.545 µg/mL
same,MIC,"Absidia spp, read-out: MIC[90]",0.25 to 2 µg/mL
same,MIC,"Alternaria spp, read-out: Geometric Mean MIC",0.852 µg/mL
same,MIC,"Alternaria spp, read-out: MIC[90]",4 µg/mL
same,MIC,"Apophysomyces spp, read-out: Geometric Mean MIC",0.5 µg/mL
same,MIC,"Apophysomyces spp, read-out: MIC[90]",0.031 to 4 µg/mL
same,MIC,"Aspergillus flavus, read-out: Geometric Mean MIC",0.91 µg/mL
same,MIC,"Aspergillus flavus, read-out: MIC[90]",2 µg/mL
same,MIC,"Aspergillus fumigatus, read-out: Geometric Mean MIC",0.683 µg/mL
same,MIC,"Aspergillus fumigatus, read-out: MIC[90]",1 µg/mL
same,MIC,"Aspergillus nidulans, read-out: Geometric Mean MIC",0.758 µg/mL
same,MIC,"Aspergillus nidulans, read-out: MIC[90]",2 µg/mL
same,MIC,"Aspergillus niger, read-out: Geometric Mean MIC",0.36 µg/mL
same,MIC,"Aspergillus niger, read-out: MIC[90]",1 µg/mL
same,MIC,"Aspergillus sydowii, read-out: Geometric Mean MIC",1.26 µg/mL
same,MIC,"Aspergillus sydowii, read-out: MIC[90]",1 to 2 µg/mL
same,MIC,"Aspergillus terreus, read-out: Geometric Mean MIC",1.76 µg/mL
same,MIC,"Aspergillus terreus, read-out: MIC[90]",4 µg/mL
same,MIC,"Aspergillus ustus, read-out: Geometric Mean MIC",0.673 µg/mL
same,MIC,"Aspergillus ustus, read-out: MIC[90]",0.25 to 1 µg/mL
same,MIC,"Bipolaris spp, read-out: Geometric Mean MIC",0.25 µg/mL
same,MIC,"Bipolaris spp, read-out: MIC[90]",0.25 µg/mL
same,MIC,"Bjerkandera adusta, read-out: Geometric Mean MIC",0.215 µg/mL
same,MIC,"Bjerkandera adusta, read-out: MIC[90]",0.25 µg/mL
same,MIC,"Blastomyces dermatitidis, read-out: Geometric Mean MIC",0.153 µg/mL
same,MIC,"Blastomyces dermatitidis, read-out: MIC[90]",0.5 µg/mL
same,MIC,"Candida albicans, read-out: Geometric Mean MIC",0.686 µg/mL
same,MIC,"Candida albicans, read-out: MIC[90]",1 µg/mL
same,MIC,"Candida dubliniensis, read-out: Geometric Mean MIC",0.513 µg/mL
same,MIC,"Candida dubliniensis, read-out: MIC[90]",1 µg/mL
same,MIC,"Candida tropicalis, read-out: Geometric Mean MIC",0.774 µg/mL
same,MIC,"Candida tropicalis, read-out: MIC[90]",1 µg/mL
same,MIC,"Clavispora lusitaniae, Candida lusitaniae, read-out: Geometric Mean MIC",0.506 µg/mL
same,MIC,"Clavispora lusitaniae, Candida lusitaniae, read-out: MIC[90]",1 µg/mL
same,MIC,"Coccidioides immitis, read-out: Geometric Mean MIC, Coccidioides immitis",0.39 µg/mL
same,MIC,"Coccidioides immitis, read-out: MIC[90], Coccidioides immitis",0.5 µg/mL
same,MIC,"Cryptococcus neoformans, read-out: Geometric Mean MIC",0.667 µg/mL
same,MIC,"Cryptococcus neoformans, read-out: MIC[90]",1 µg/mL
same,MIC,"Curvularia spp, read-out: Geometric Mean MIC",0.5 µg/mL
same,MIC,"Curvularia spp, read-out: MIC[90]",0.5 µg/mL
same,MIC,"Debaryomyces hansenii, Candida famata, read-out: Geometric Mean MIC",0.841 µg/mL
same,MIC,"Debaryomyces hansenii, Candida famata, read-out: MIC[90]",2 µg/mL
same,MIC,"Diutina rugosa, Candida rugosa, read-out: Geometric Mean MIC",0.665 µg/mL
same,MIC,"Diutina rugosa, Candida rugosa, read-out: MIC[90]",1 µg/mL
same,MIC,"Dujonia zeylanoides, Candida zeylanoides, read-out: Geometric Mean MIC",1 µg/mL
same,MIC,"Dujonia zeylanoides, Candida zeylanoides, read-out: MIC[90]",1 µg/mL
same,MIC,"Exophiala dermatidis, read-out: Geometric Mean MIC",0.5 µg/mL
same,MIC,"Exophiala dermatidis, read-out: MIC[90]",0.5 µg/mL
same,MIC,"Exophiala dermatitidis, Wangiella dermatitidis, read-out: Geometric Mean MIC",0.63 µg/mL
same,MIC,"Exophiala dermatitidis, Wangiella dermatitidis, read-out: MIC[90]",0.25 to 1 µg/mL
same,MIC,"Exophiala jeanselmei, read-out: Geometric Mean MIC",0.66 µg/mL
same,MIC,"Exophiala jeanselmei, read-out: MIC[90]",1 µg/mL
same,MIC,"Exophiala moniliae, read-out: Geometric Mean MIC",0.177 µg/mL
same,MIC,"Exophiala moniliae, read-out: MIC[90]",0.125 to 0.25 µg/mL
same,MIC,"Fonsecae pedrosoi, read-out: Geometric Mean MIC",1 µg/mL
same,MIC,"Fonsecae pedrosoi, read-out: MIC[90]",1 µg/mL
same,MIC,"Fusarium spp, read-out: Geometric Mean MIC",1.2 µg/mL
same,MIC,"Fusarium spp, read-out: MIC[90]",2 µg/mL
same,MIC,"Hansenula anomala, Pichia anomala, read-out: Geometric Mean MIC",0.707 µg/mL
same,MIC,"Hansenula anomala, Pichia anomala, read-out: MIC[90]",1 µg/mL
same,MIC,"Histoplasma capsulatum, read-out: Geometric Mean MIC, Histoplasma capsulatum",0.25 µg/mL
same,MIC,"Histoplasma capsulatum, read-out: MIC[90], Histoplasma capsulatum",0.5 µg/mL
same,MIC,"Kluyveromyces marxianus, Candida kefyr, read-out: Geometric Mean MIC",0.779 µg/mL
same,MIC,"Kluyveromyces marxianus, Candida kefyr, read-out: MIC[90]",1 µg/mL
same,MIC,"Kluyveromyces marxianus, read-out: Geometric Mean MIC",1 µg/mL
same,MIC,"Kluyveromyces marxianus, read-out: MIC[90]",1 µg/mL
same,MIC,"Lodderomyces parapsilosis, Candida parapsilosis, read-out: Geometric Mean MIC",0.761 µg/mL
same,MIC,"Lodderomyces parapsilosis, Candida parapsilosis, read-out: MIC[90]",1 µg/mL
same,MIC,"Meyerozyma guilliermondii, Candida guilliermondii, read-out: Geometric Mean MIC",0.553 µg/mL
same,MIC,"Meyerozyma guilliermondii, Candida guilliermondii, read-out: MIC[90]",1 µg/mL
same,MIC,"Mucor spp, read-out: Geometric Mean MIC",0.274 µg/mL
same,MIC,"Mucor spp, read-out: MIC[90]",1 µg/mL
same,MIC,"Nakaseomyces glabratus, Candida glabrata, read-out: Geometric Mean MIC",0.798 µg/mL
same,MIC,"Nakaseomyces glabratus, Candida glabrata, read-out: MIC[90]",1 µg/mL
same,MIC,"Paecilomyces spp, read-out: Geometric Mean MIC",1.1 µg/mL
same,MIC,"Paecilomyces spp, read-out: MIC[90]",16 µg/mL
same,MIC,"Papiliotrema laurentii, Cryptococcus laurentii, read-out: Geometric Mean MIC",0.794 µg/mL
same,MIC,"Papiliotrema laurentii, Cryptococcus laurentii, read-out: MIC[90]",0.5 to 1 µg/mL
same,MIC,"Paracoccidioides brasiliensis, read-out: Geometric Mean MIC, Paracoccidioides brasiliensis",0.096 µg/mL
same,MIC,"Paracoccidioides brasiliensis, read-out: MIC[90], Paracoccidioides brasiliensis",0.25 µg/mL
same,MIC,"Penicillium spp, read-out: Geometric Mean MIC",1.02 µg/mL
same,MIC,"Penicillium spp, read-out: MIC[90]",4 µg/mL
same,MIC,"Pichia etchel, read-out: Geometric Mean MIC",0.063 µg/mL
same,MIC,"Pichia etchel, read-out: MIC[90]",0.063 µg/mL
same,MIC,"Pichia kudriavzevii, Candida krusei, read-out: Geometric Mean MIC",0.976 µg/mL
same,MIC,"Pichia kudriavzevii, Candida krusei, read-out: MIC[90]",2 µg/mL
same,MIC,"Pleurothecium obovoideum, Ramichloridium obovoideum, read-out: Geometric Mean MIC",1 µg/mL
same,MIC,"Pleurothecium obovoideum, Ramichloridium obovoideum, read-out: MIC[90]",1 µg/mL
same,MIC,"Rhizomucor spp, read-out: Geometric Mean MIC",0.063 µg/mL
same,MIC,"Rhizomucor spp, read-out: MIC[90]",0.063 µg/mL
same,MIC,"Rhizopus spp, read-out: Geometric Mean MIC",0.635 µg/mL
same,MIC,"Rhizopus spp, read-out: MIC[90]",2 µg/mL
same,MIC,"Saccharomyces cerevisiae, read-out: Geometric Mean MIC",0.775 µg/mL
same,MIC,"Saccharomyces cerevisiae, read-out: MIC[90]",1 µg/mL
same,MIC,"Scedosporium apiospermum, read-out: Geometric Mean MIC",2.27 µg/mL
same,MIC,"Scedosporium apiospermum, read-out: MIC[90]",8 µg/mL
same,MIC,"Scedosporium boydii, Pseudallescheria boydii, read-out: Geometric Mean MIC",1.72 µg/mL
same,MIC,"Scedosporium boydii, Pseudallescheria boydii, read-out: MIC[90]",4 µg/mL
same,MIC,"Sporothrix schenckii, read-out: Geometric Mean MIC",0.574 µg/mL
same,MIC,"Sporothrix schenckii, read-out: MIC[90]",1 µg/mL
same,MIC,"Trichophyton mentagrophytes, read-out: Geometric Mean MIC",1 µg/mL
same,MIC,"Trichophyton mentagrophytes, read-out: MIC[90]",1 µg/mL
same,MIC,"Trichophyton tonsurans, read-out: Geometric Mean MIC",1.26 µg/mL
same,MIC,"Trichophyton tonsurans, read-out: MIC[90]",0.5 to 8 µg/mL
same,MIC,"Trichosporon spp, read-out: Geometric Mean MIC",1.32 µg/mL
same,MIC,"Trichosporon spp, read-out: MIC[90]",1 to 2 µg/mL
same,MIC,"Yarrowia lipolytica, read-out: Geometric Mean MIC",0.5 µg/mL
same,MIC,"Yarrowia lipolytica, read-out: MIC[90]",0.5 µg/mL

# Source: patent US20090226527A1, “Particulate-stabilized injectable pharmacutical compositions of posaconazole” (priority 2004, published 2009)
